This is an account of results in PMC7066271 (Clinical and Experimental Nephrology, 2020).

Series [1] relates to healthy adult males. In words: Safety evaluation: adverse events in healthy adult males. Format: in vivo, human. The note with it: for Adverse events reported, all: by treatment period, causal relationship with study drugs ruled out; for Peritonsillar abscess, incidence / Peritonsillar abscess, number of events / Pharyngitis, incidence / Pharyngitis, number of events / Urine beta 2 microglobulin increased, incidence / Urine beta 2 microglobulin increased, number of events: healthy adult males, n = 12 for each drug alone, n = 11 for co-administration. The protocol: (§1) This was a single-center, open-label, two-period, sequential-group, add-on, drug–drug interaction study in healthy adult males conducted at a Japanese clinical pharmacology study center. Following a screening period ranging from 29 days before, to the day before the study drug administration (Day -1), eligible subjects were admitted to the study site on Day-1, received a single 4 mg oral dose of dotinurad in a fed state, and were discharged 48 h postdose. […] They underwent a follow-up examination between six and ten days after co-administration for safety evaluation.
Adverse events (AEs), a measure used for safety evaluation, were coded by preferred term using the Medical Dictionary for Regulatory Activities (MedDRA) version 20.1 (Japanese Maintenance Organization, Tokyo, Japan) and tabulated. The investigator observed/examined/assessed AEs, subjective symptoms and objective findings, vital signs, electrocardiography, and laboratory test values.
The safety analysis population included subjects who received at least one dose of dotinurad and who had data for safety evaluation.

Series [2] has as its system healthy adult males. Description: Estimated glomerular filtration rate 24 h after dosing. Format: in vivo, human.
The subject of a further series is human plasma protein. Set-up: method as in earlier work. As to conditions: cited from earlier work.
Series [3] in a line: Plasma pharmacokinetics of dotinurad, single 4 mg oral dose with and without oxaprozin, in healthy adult males. Format: in vivo, human. As to the method:
This was a single-center, open-label, two-period, sequential-group, add-on, drug-drug interaction study in healthy adult males conducted at a Japanese clinical pharmacology study center. Following a screening period ranging from 29 days before, to the day before the study drug administration (Day -1), eligible subjects were admitted to the study site on Day-1, received a single 4 mg oral dose of dotinurad in a fed state, and were discharged 48 h postdose. […] They underwent a follow-up examination between six and ten days after co-administration for safety evaluation. […] A blood sample was drawn, in the amount of 5 mL at each time point except for 10 mL at 4 h after drug administration, into a heparin-containing blood collection tube and centrifuged at 3000 rpm for 10 min at 4 °C. A plasma sample obtained at each time point was then stored at - 20 °C before shipping in a chilled condition with dry ice to Sekisui Medical Co., Ltd. (Ibaraki, Japan) for determination of plasma drug concentrations. […] Ultrafiltered plasma samples were used to determine unbound plasma concentrations of dotinurad by a validated LC-MS/MS method (LC:LC-20AD system, SHIMADZU. MS/MS: API4000, SCIEX). The LLOQ was 0.1 ng/mL.

Series [4] relates to urate transporter 1 (URAT1). Set-up: method as in PMID 31371478, PMID 31754883. As to conditions: cited from earlier work.
Series [5] in a line: Unbound fraction of dotinurad in plasma at the time of Cmax (ultrafiltered plasma, LC-MS/MS). It is filed as in vivo, human. The protocol:
(§2) Ultrafiltered plasma samples were used to determine unbound plasma concentrations of dotinurad by a validated LC–MS/MS method (LC:LC-20AD system, SHIMADZU. MS/MS: API4000, SCIEX). The LLOQ was 0.1 ng/mL.

Series [6] concerns ATP-binding cassette subfamily G member 2 (ABCG2). Set-up: method as in PMID 31371478, PMID 31754883. As to conditions: compared to probenecid, benzbromarone, and lesinurad; cited from earlier work.
In a further series the test system is OAT3. Set-up: method as in PMID 31371478, PMID 31754883. As to conditions: compared to probenecid, benzbromarone, and lesinurad; cited from earlier work.
The subject of series [7] is CYPs, UGTs, sulfotransferases, and drug transporters. Further details: method as in earlier work. As to conditions: at clinical doses, several in vitro studies; cited from earlier work.
Series [8] is described as follows: Urinary excretion (fe) of dotinurad metabolites with and without oxaprozin in healthy adult males. Format: in vivo, human. As to the method:
as §1
After the pH of the urine sample collected after each time interval was adjusted to ≤ 7.0, the sample was stored at – 20 °C before shipping in a chilled condition with dry ice to Fuji Yakuhin Co., Ltd. (Saitama, Japan) for determination of urinary concentrations of dotinurad’s metabolites.
Urinary concentrations of metabolites (glucuronate conjugates and sulfate conjugates) were determined by a validated LC-MS/MS method (LC: Nexera X2 and Prominence, SHIMADZU. MS/MS: Triple Quad 4500, SCIEX). The LLOQ was 10 ng/mL for both metabolites.

The test system of series [9] is organic anion transporter (OAT) 1. Set-up: method as in PMID 31371478, PMID 31754883. The note with it: compared to probenecid, benzbromarone, and lesinurad; cited from earlier work.
Series [10] in a line: Plasma oxaprozin concentrations before and 24 h after co-administration (steady-state check). Format: in vivo. The note with it: male, human, oral, 24 h after co-administration with dotinurad, n = 11. The protocol:
A blood sample was drawn, in the amount of 5 mL at each time point except for 10 mL at 4 h after drug administration, into a heparin-containing blood collection tube and centrifuged at 3000 rpm for 10 min at 4 °C. A plasma sample obtained at each time point was then stored at – 20 °C before shipping in a chilled condition with dry ice to Sekisui Medical Co., Ltd. (Ibaraki, Japan) for determination of plasma drug concentrations.
as §2

[11] abbreviates: [dotinurad and oxaprozin]/[dotinurad alone], n = 11.
The mark [12] stands for this setting: dotinurad 4 mg co-administered with oxaprozin 600 mg, fed, n = 11.
Where [13] appears, read: dotinurad alone, single 4 mg oral dose, fed, n = 12.
The mark [14] stands for this setting: male, human, plasma, dotinurad alone, single 4 mg oral dose, fed, n = 12.

For `O=C(c1cc(Cl)c(O)c(Cl)c1)N1CS(=O)(=O)c2ccccc21` [Dotinurad, dotinurad], in the series with healthy adult males [1], the “Adverse events reported, all” value is given as “Two events occurred in two subjects”; the “Peritonsillar abscess, incidence” value was determined as 0.0%; the “Peritonsillar abscess, number of events” value turned out to be 0; the “Pharyngitis, incidence” value was 8.3%. Moreover, in the series with healthy adult males [1], the “Pharyngitis, number of events” value amounted to 1; the “Urine beta 2 microglobulin increased, incidence” value is 8.3%; the “Urine beta 2 microglobulin increased, number of events” value is 1. Moreover, the “Estimated glomerular filtration rate (eGFR) (mean ± SD)” value in the series with healthy adult males [2] (24 h after administration of dotinurad alone, n = 12) is recorded as 100.9 ± 13.0 mL/min/1.73 m^2. In the series on healthy adult males [2] (24 h after co-administration with oxaprozin, n = 11), the “Estimated glomerular filtration rate (eGFR) (mean ± SD)” value is given as 93.3 ± 13.0 mL/min/1.73 m^2. Besides, the “Effect on plasma protein binding rates of potentially co-administered drugs” value in the series on human plasma protein (at clinical doses, in vitro) is given as “no effects”. In [3] (setting [11]), the “AUC0–inf, geometric mean ratio (90% CI)” value is listed as 1.165 (1.114–1.219); the “CLtot/F, geometric mean ratio (90% CI)” value is recorded as 0.858 (0.820–0.898); the “Cmax, geometric mean ratio (90% CI)” value is listed as 0.982 (0.945–1.021); the “T1/2, geometric mean ratio (90% CI)” value is 1.205 (1.176–1.236). Also, in [3] (setting [11]), the “Tmax, geometric mean ratio (90% CI)” value is recorded as 1.000 (0.844–1.185) and the “Vd/F, geometric mean ratio (90% CI)” value is reported as 1.035 (0.999–1.071). In series [3] (co-administration with oxaprozin compared with dotinurad alone), the “Increase in AUC0–inf of dotinurad” value was found to be 16.5%. Moreover, in series [3] (setting [12]), the “AUC0–inf, mean” value amounted to 4487 ng・h/mL and the “CLtot/F, mean” value is 0.901 L/h. In series [3] (setting [13]), the “AUC0–inf, mean” value amounted to 3846 ng・h/mL and the “CLtot/F, mean” value was determined as 1.065 L/h. In series [3] (setting [14]), the Cmax (in general, the highest concentration seen after dosing) was 0.271 µg/mL; the time to peak (Tmax) – broadly, the time at which the peak concentration occurs – came to 3.67 h; the Vd/F (commonly the volume of distribution divided by bioavailability) is 14.9 L. For the same compound, the half-life in [3] (male, human, plasma, dotinurad alone, single 4 mg oral dose, fed, n = 12, read-out: T1/2, mean (converted)) is 9.85 h. Also, in series [4], the URAT1 inhibition result was “potent URAT1 inhibitor”. In addition, the “Unbound fraction in plasma at Cmax, geometric mean ratio (90% CI)” value in [5] (setting [11]) was 1.615 (1.454–1.794). Moreover, in [5] (male, human, plasma, oral, dotinurad alone, 4 mg, n = 12), the fraction unbound (usually the share of the substance not bound to proteins or other matrix) is 0.00534. In [6], the “Effect on ABCG2” value is “minimal effect”. Further, the “Effect on OAT3” value in the series on OAT3 is recorded as “minimal effect”. For the same compound, in series [7], the “Effect on CYPs, UGTs, sulfotransferases, and drug transporters” value is “no effects”. For the same compound, the “Estimated increase in dotinurad exposure when co-administered with oxaprozin” value in series [8] (assuming absence of compensatory enhancement of other metabolic pathways) is given as “approximately 13%”. In series [8] (calculated from fe of glucuronate conjugates), the “Proportion of glucuronidation inhibited by co-administered oxaprozin in terms of the entire metabolism of dotinurad” value is listed as 13.2%. In addition, the “Effect on OAT1” value in series [9] is “minimal effect”.

On to `O=C(O)CCc1nc(-c2ccccc2)c(-c2ccccc2)o1` [Oxaprozin, oxaprozin, reference compound], for which, in the series with healthy adult males [1], the “Adverse events reported, all” value is given as “one event occurred in one subject”; the “Peritonsillar abscess, incidence” value was determined as 8.3%; the “Peritonsillar abscess, number of events” value came to 1; the “Pharyngitis, incidence” value came to 0.0%. In the series with healthy adult males [1], the “Pharyngitis, number of events” value is given as 0; the “Urine beta 2 microglobulin increased, incidence” value was found to be 0.0%; the “Urine beta 2 microglobulin increased, number of events” value is recorded as 0. The “Effect on plasma protein binding rate of dotinurad” value with human plasma protein (human plasma, ultrafiltration method) is recorded as “lower the plasma protein binding rate of dotinurad”. Further, the concentration at 24 h in series [10] amounted to 102 ± 10.4 µg/mL.
